# Biological target: Vitamin D3 receptor (Rattus norvegicus) (UniProt P13053)
# Test: In vitro study, VDR binding assay were performed as previously described.
# Sequence of Vitamin D3 receptor (Rattus norvegicus) (P13053 whole entry, looked up): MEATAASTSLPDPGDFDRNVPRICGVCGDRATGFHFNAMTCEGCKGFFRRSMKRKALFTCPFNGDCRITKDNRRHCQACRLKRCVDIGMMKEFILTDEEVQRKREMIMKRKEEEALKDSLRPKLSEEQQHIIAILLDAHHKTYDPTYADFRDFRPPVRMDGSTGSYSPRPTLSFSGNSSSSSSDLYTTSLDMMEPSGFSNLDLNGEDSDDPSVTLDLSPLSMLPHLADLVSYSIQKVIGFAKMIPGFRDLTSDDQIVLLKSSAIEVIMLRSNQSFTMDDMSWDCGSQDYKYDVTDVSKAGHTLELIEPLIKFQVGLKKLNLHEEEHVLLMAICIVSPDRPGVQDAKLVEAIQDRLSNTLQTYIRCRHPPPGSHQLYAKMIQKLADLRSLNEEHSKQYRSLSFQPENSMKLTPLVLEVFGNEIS
row,SMILES,Ki [nM]
1,"C=C1[C@H](O)CC(=C/C=C2\CCC[C@@]3(C)C2CCC3[C@H](C)CCCCO)C[C@H]1O (some centres undefined) [Vitamin D analog, 6]",0.2
2,"C=C1[C@H](O)CC(=C/C=C2\CCC[C@@]3(C)C2CCC3[C@@H](C)CCCCO)C[C@H]1O (some centres undefined) [Vitamin D analog, 7]",0.3
3,"C=C1[C@H](O)CC(=C/C=C2\CCC[C@@]3(C)C2CCC3[C@H](C)CCCC)C[C@H]1O (some centres undefined) [Vitamin D analog, 8]",0.3
4,"C=C1[C@H](O)CC(=C/C=C2\CCC[C@@]3(C)C2CCC3[C@@H](C)CCCC)C[C@H]1O (some centres undefined) [Vitamin D analog, 9]",0.3

# — BindingDB's records for doi:10.1016/j.bioorg.2013.01.001 (University of Wisconsin-Madison, 2013)
